Source: BindingDB's records for doi:10.1021/jm970414b (University of Michigan, 1997)

Target: Glutathionylspermidine synthetase/amidase (Escherichia coli) (UniProt P0AES0)
Assay: Inhibition of Glutathionylspermidine synthetase from Escherichia coli, value taken from literature

Sequence of Glutathionylspermidine synthetase/amidase (Escherichia coli) (P0AES0 whole entry, looked up): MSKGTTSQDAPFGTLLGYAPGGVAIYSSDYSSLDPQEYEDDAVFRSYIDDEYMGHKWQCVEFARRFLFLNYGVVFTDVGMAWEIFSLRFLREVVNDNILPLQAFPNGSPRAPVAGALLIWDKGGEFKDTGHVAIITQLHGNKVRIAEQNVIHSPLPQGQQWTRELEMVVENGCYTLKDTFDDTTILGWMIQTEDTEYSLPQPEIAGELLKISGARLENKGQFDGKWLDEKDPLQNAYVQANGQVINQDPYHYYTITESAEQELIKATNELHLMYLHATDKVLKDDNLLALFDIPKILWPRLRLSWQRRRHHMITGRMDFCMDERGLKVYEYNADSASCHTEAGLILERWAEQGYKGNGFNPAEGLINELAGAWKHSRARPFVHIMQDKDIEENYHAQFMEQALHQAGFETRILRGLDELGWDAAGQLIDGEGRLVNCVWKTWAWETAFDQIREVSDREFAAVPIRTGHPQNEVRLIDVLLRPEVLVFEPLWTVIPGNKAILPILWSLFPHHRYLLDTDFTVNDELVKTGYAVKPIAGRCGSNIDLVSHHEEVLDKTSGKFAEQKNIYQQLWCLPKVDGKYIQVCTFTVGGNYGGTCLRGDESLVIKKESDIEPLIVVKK

Ki: 14 µM
SMILES: C[C@H](NC(=O)CC[C@H](N)C(=O)O)C(=O)NCP(=O)(O)OCCCNCCCCN [2-Amino-4-[1-({[3-(4-amino-butylamino)-propoxy]-hydroxy-phosphorylmethyl}-carbamoyl)-ethylcarbamoyl]-butyric acid]
